Reference: US10988466B2, “Heterocyclic derivatives useful as SHP2 inhibitors” (Jacobio Pharmaceuticals Co., Ltd., priority 2017, dated 2021)

Target: T1, SHP2 (Homo sapiens, UniProt Q06124)
T1 sequence (Q06124 1-593): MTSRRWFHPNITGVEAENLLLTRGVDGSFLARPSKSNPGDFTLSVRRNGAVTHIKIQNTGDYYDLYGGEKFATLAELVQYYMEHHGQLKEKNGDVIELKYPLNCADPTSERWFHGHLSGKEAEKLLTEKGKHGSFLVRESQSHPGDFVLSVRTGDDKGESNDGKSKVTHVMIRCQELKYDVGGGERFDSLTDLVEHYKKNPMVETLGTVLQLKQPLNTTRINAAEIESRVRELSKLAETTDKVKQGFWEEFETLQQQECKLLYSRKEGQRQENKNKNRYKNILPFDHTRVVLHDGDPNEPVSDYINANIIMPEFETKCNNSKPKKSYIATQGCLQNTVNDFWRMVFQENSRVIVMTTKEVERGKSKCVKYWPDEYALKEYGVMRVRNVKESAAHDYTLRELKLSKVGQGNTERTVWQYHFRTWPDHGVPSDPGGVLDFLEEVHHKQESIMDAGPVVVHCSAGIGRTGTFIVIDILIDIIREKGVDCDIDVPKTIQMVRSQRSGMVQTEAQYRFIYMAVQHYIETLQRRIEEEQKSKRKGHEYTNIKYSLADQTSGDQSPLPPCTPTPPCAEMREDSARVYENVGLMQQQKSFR
Test: biochemical
Settings: read-out: SHP2 inhibition (%)@0.1 μM
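Further: compounds preincubated 30 min at room temperature in the assay mixture, activity referenced to a 0.5% (v/v) DMSO control taken as 100%, run in triplicate.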

inhibition at 0.1 µM	Structure (SMILES)
69%	CP(C)(=O)c1cc2c(cc1F)CC1(CCN(c3cnc(Sc4ccnc(N)c4Cl)c(N)n3)CC1)[C@@H]2N [Example 41, (S)-(1-amino-1′-(6-amino-((2-amino-3-chloropyridin-4-yl)thio)pyrazin-2-yl)-5-fluoro-1,3-dihydrospiro[indene-2,4′-piperidin]-6-yl) dimethylphosphine oxide]
81%	Nc1cccc(Sc2ncc(N3CCC4(CC3)Cc3ncccc3C4N)nc2N)c1Cl (stereo not shown) [Example 126, 1′-(6-amino-5-((3-amino-2-chlorophenyl)thio)pyrazin-2-yl)-5,7-dihydrospiro[cyclo-penta[b]pyridine-6,4′-piperidin]-5-amine]
90%	CC(=O)c1ccc2c(c1)[C@@H](N)C1(CCN(c3cnc(Sc4ccnc(N)c4Cl)c(N)n3)CC1)C2 [Example 158, (S)-1-(1-amino-1′-(6-amino-5-((2-amino-3-chloropyridin-4-yl)thio)pyrazin-2-yl)-1,3-dihydrospiro[indene-2,4′-piperidin]-6-yl)ethan-1-one]
78%	Nc1nc(N2CCC3(CC2)Cc2ccccc2[C@H]3N)cnc1Sc1ccnc(O)c1Cl [Example 134, (S)-4-((3-amino-5-(1-amino-1,3-dihydrospiro[indene-2,4′-piperidin]-1′-yl)pyrazin-2-yl)thio)-3-chloropyridin-2-ol]
54%	Nc1nc(N2CCC3(CC2)Cc2cccnc2C[C@H]3N)cnc1Sc1ccnc(N)c1Cl [Example 9, (R)-1-(6-amino-5-((2-amino-3-chloropyridin-4-yl)thio)pyrazin-2-yl)-7,8′-dihydro-5′H-spiro [piperidine-4,6′-quinolin]-7′-amine]
71%	Nc1cnccc1Sc1cnc(N2CCC3(CC2)Cc2ncccc2[C@H]3N)cn1 [Example 108, (S)-1′-(5-((3-amino-pyridin-4-yl)thio)pyrazin-2-yl)-5,7-dihydrospiro [cyclopenta[b]pyridine-6,4′-piperidin]-5-amine]
65%	Nc1nc(N2CCC3(CC2)Cc2ccc(-n4ccnc4)cc2[C@H]3N)cnc1Sc1ccnc(N)c1Cl [Example 36, (S)-1′-(6-amino-5-((2-amino-3-chloropyridin-4-yl)thio)pyrazin-2-yl)-6-(1H-imidazol-1-yl)-1,3-dihydrospiro [indene-2,4′-piperidin]-1-amine]
77%	Nc1nc(N2CCC3(CC2)Cc2c(Br)cccc2[C@H]3N)cnc1Sc1ccnc(N)c1Cl [Example 29, (S)-1′-(6-amino-5-((2-amino-3-chloropyridin-4-yl)thio)pyrazin-2-yl)-4-bromo-1,3-dihydro-spiro[indene-2,4′-piperidin]-1-amine]
79%	Nc1nc(N2CCC3(CC2)Cc2ncccc2[C@H]3N)cnc1Sc1ccnc(F)c1Cl [Example 116, (S)-1′-(6-amino-5-((3-chloro-2-fluoropyridin-4-yl)thio)pyrazin-2-yl)-5,7-dihydrospiro [cyclopenta[b]pyridine-6,4′-piperidin]-5-amine]
35%	Nc1nc(N2CCC3(CC2)Cc2ccccc2[C@@H]3N)cnc1Sc1ccnc(N)c1Cl [Example 18, (R)-1′-(6-amino-5-((2-amino-3-chloropyridin-4-yl)thio)pyrazin-2-yl)-1,3-dihydrospiro[indene-2,4′-piperidin]-1-amine]
75%	Nc1nc(N2CCC3(CC2)Cc2ccc(Br)cc2[C@H]3N)cnc1Sc1ccnc(N)c1Cl [Example 28, (S)-1′-(6-amino-5-((2-amino-3-chloropyridin-4-yl)thio)pyrazin-2-yl)-6-bromo-1,3-dihydro-spiro[indene-2,4′-piperidin]-1-amine]
86%	Nc1cccc(Sc2cnc(N3CCC4(CC3)Cc3ncccc3[C@H]4N)cn2)c1Cl [Example 97, (S)-1′-(5-((3-amino-2-chlorophenyl)thio)pyrazin-2-yl)-5,7-dihydro-spiro[cyclopenta [b]pyridine-6,4′-piperidin]-5-amine]
70%	Nc1nc(N2CCC3(CC2)Cc2c(ccc4ccccc24)[C@H]3N)cnc1Sc1ccnc(N)c1Cl [Example 31, (S)-1′-(6-amino-5-((2-amino-3-chloropyridin-4-yl)thio)pyrazin-2-yl)-1,3-dihydrospiro[cyclopenta [a]naphthalene-2,4′-piperidin]-3-amine]
86%	N[C@@H]1c2cccnc2CC12CCN(c1cnc(Sc3ccnc(F)c3Cl)cn1)CC2 [Example 115, (S)-1′-(5-((3-chloro-2-fluoropyridin-4-yl)thio)pyrazin-2-yl)-5,7-dihydrospiro [cyclopenta[b]pyridine-6,4′-piperidin]-5-amine]
81%	Nc1nccc(Sc2cnc(N3CCC4(CC3)Cc3ccccc3[C@H]4N)cn2)c1Cl [Example 48, (S)-1′-(5-((2-amino-3-chloropyridin-4-yl)thio)pyrazin-2-yl)-1,3-dihydro-spiro[indene-2,4′-piperidin]-1-amine]
76%	Nc1nc(N2CCC3(CC2)Cc2ccc(-n4cccc4)cc2[C@H]3N)cnc1Sc1ccnc(N)c1Cl [Example 37, (S)-1′-(6-amino-5-((2-amino-3-chloropyridin-4-yl)thio)pyrazin-2-yl)-6-(1H-pyrrol-1-yl)-1,3-dihydro-spiro[indene-2,4′-piperidin]-1-amine]

The next lines start with the molecule.

Structure (SMILES)	inhibition at 0.1 µM
Nc1nc(N2CCC3(CC2)Cc2ncccc2[C@H]3N)cnc1Sc1cccnc1C(F)(F)F [Example 114, (S)-1′-(6-amino-5-((2-(trifluoro-methyl)pyridin-3-yl)thio)pyrazin-2-yl)-5,7-dihydrospiro [cyclopenta [b]pyridine-6,4′-piperidin]-5-amine]	96%
N[C@@H]1c2ccccc2CC12CCN(c1cnc(Sc3ccnc(O)c3Cl)cn1)CC2 [Example 133, (S)-4-((5-(1-amino-1,3-dihydrospiro[indene-2,4′-piperidin]-1′-yl)pyrazin-2-yl)thio)-3-chloro pyridin-2-ol]	76%
Nc1nccc(Sc2cnc(N3CCC4(CC3)Cc3scnc3C4N)cn2)c1Cl (stereo not shown) [Example 154, 1′-(5-((2-amino-3-chloropyridin-4-yl)thio)pyrazin-2-yl)-4,6-dihydrospiro[cyclopenta[d]thiazole-5,4′-piperidin]-4-amine]	82%
COc1nccc(Sc2ncc(N3CCC4(CC3)Cc3ccccc3[C@H]4N)nc2N)c1Cl [Example 54, (S)-1′-(6-amino-5-((3-chloro-2-methoxypyridin-4-yl)thio)pyrazin-2-yl)-1,3-dihydrospiro [indene-2,4′-piperidin]-1-amine]	69%
Nc1cc(Sc2ncc(N3CCC4(CC3)Cc3ncccc3[C@H]4N)nc2N)c(Cl)cn1 [Example 113, (S)-1′-(6-amino-5-((2-amino-5-chloropyridin-4-yl)thio)pyrazin-2-yl)-5,7-dihydrospiro [cyclopenta[b]pyridine-6,4′-piperidin]-5-amine]	80%
COc1ccc2c(c1)CC1(CCN(c3cnc(Sc4ccnc(N)c4Cl)c(N)n3)CC1)C2=N [Example 143, 3-((2-amino-3-chloropyridin-4-yl)thio)-6-(1-imino-5-methoxy-1,3-dihydro-spiro[indene-2,4′-piperidin]-1′-yl)pyrazin-2-amine]	72%
Nc1nc(N2CCC3(CC2)Cc2sc(Cl)nc2C3N)cnc1Sc1ccnc(N)c1Cl (stereo not shown) [Example 130, 1′-(6-amino-5-((2-amino-3-chloropyridin-4-yl)thio)pyrazin-2-yl)-2-chloro-4,6-dihydro-spiro[cyclopenta [d]thiazole-5,4′-piperidin]-4-amine]	94%
CN1CCN(c2ccc3c(c2)[C@@H](N)C2(CCN(c4cnc(Sc5ccnc(N)c5Cl)c(N)n4)CC2)C3)CC1 [Example 75, (S)-1′-(6-amino-5-((2-amino-3-chloropyridin-4-yl)thio)pyrazin-2-yl)-6-(4-methylpiperazin-1-yl)-1,3-dihydrospiro [indene-2,4′-piperidin]-1-amine]	16%
Nc1nc(N2CCC3(CC2)Cc2ncccc2[C@H]3N)cnc1Sc1cc(Cl)ncc1C(F)(F)F [Example 120, (S)-1′-(6-amino-5-((2-chloro-5-(trifluoromethyl)pyridin-4-yl)thio)pyrazin-2-yl)-5,7-dihydrospiro [cyclopenta[b]pyridine-6,4′-piperidin]-5-amine]	87%
Nc1nc(N2CCC3(CC2)Cc2cc(Br)ccc2[C@H]3N)cnc1Sc1ccnc(N)c1Cl [Example 47, (S)-1′-(6-amino-5-((2-amino-3-chloropyridin-4-yl)thio)pyrazin-2-yl)-5-bromo-1,3-dihydro-spiro[indene-2,4′-piperidin]-1-amine]	81%
CC(=O)N1CC(F)(F)c2c(Sc3ncc(N4CCC5(CC4)Cc4ccccc4[C@H]5N)nc3N)cccc21 [Example 78, (S)-1-(4-((3-amino-5-(1-amino-1,3-dihydrospiro[indene-2,4′-piperidin]-1′-yl)pyrazin-2-yl)thio)-3,3-difluoroindolin-1-yl)ethan-1-one]	67%
CC(=O)N1CC(F)(F)c2c(Sc3ncc(N4CCC5(CC4)Cc4ncccc4[C@H]5N)nc3N)cccc21 [Example 103, (S)-1-(4-((3-amino-5-(5-amino-5,7-dihydrospiro [cyclopenta[b]pyridine-6,4′-piperidin]-1′-yl)pyrazin-2-yl)thio)-3,3-difluoroindolin-1-yl) ethan-1-one]	76%
